# Literature values, collected in patent publication US20200300859A1, “MODULATING BIOMARKERS TO INCREASE TUMOR IMMUNITY AND IMPROVE THE EFFICACY OF CANCER IMMUNOTHERAPY” (Dana-Farber Cancer Institute, Inc., priority 2017, published 2020).
# System: osmotic nephrosis
# Conditions: in vivo
compound,measurement,value
"CN1C(=O)C(Cc2c[nH]c3ccccc23)NC1=S (stereo not shown) [Necrostatin-1, 5-(1H-Indol-3-ylmethyl)-3-methyl-2-thioxo-4-imidazolidinone]",osmotic nephrosis,prevents
